Laboratory results published in patent US11479532B2, “5-aminolevulinate synthase inhibitors and methods of use thereof” (UNIVERSITY OF SOUTH FLORIDA, priority 2017, dated 2022).

Tested on: ALAS
Test: not given
Conditions: background, reference [3]; read-out: IC50 of known ALAS inhibitor; cited from earlier work

SMILES | IC50
NC(C(=O)O)C(=O)O [aminomalonate] | 7 µM

Biological target: 5-aminolevulinate synthase (ALAS) (Mus musculus (Mouse), UniProt P08680)
Test: ALAS activity
Format: biochemical
Conditions: not given
Method: ALAS activity was determined according the article, Stojanovski, B. M., Breydo, L., Hunter, G. A., Uversky, V. N, Ferreira G. C. (2014) Biochim. Biophys. Acta 1844, 2145-2154, which is hereby incorporated by reference in its entirety.

Chain of 5-aminolevulinate synthase (ALAS) (P08680 50-587): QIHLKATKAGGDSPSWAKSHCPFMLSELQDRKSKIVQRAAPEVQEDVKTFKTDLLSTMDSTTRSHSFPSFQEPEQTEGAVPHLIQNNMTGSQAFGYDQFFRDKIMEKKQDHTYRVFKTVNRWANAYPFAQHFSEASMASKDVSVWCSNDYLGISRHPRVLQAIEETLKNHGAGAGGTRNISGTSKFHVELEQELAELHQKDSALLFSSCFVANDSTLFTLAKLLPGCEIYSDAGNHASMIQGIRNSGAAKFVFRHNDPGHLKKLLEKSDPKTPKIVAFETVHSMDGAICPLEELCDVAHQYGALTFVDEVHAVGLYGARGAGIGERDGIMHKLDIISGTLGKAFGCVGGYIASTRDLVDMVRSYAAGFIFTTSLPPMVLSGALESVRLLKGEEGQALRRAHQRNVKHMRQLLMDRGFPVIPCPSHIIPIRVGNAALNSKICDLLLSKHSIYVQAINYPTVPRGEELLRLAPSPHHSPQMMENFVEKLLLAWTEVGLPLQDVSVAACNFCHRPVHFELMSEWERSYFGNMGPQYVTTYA

IC50 | SMILES
43 ± 5.8 µM | CC1(C)CCN(c2ccc(C(=O)NS(=O)(=O)c3ccc(CN(CCSc4ccccc4)Cc4ccc(S(N)(=O)=O)cc4)cc3)cc2)CC1 [SZ10TA2]
8.6 ± 0.9 µM | Cn1cc(C(=O)C2CCCCC2)c2cc(C(=O)NS(=O)(=O)c3ccc(CN(CCSc4ccccc4)Cc4ccc(S(N)(=O)=O)cc4)cc3)ccc21 [SZ10TA40]
31.4 ± 1.8 µM | COc1ccc(Cc2ccc(C(=O)NS(=O)(=O)c3ccc(-c4ccc(Oc5ccccc5)cc4)cc3)cc2)c(OC)c1OC [SZ35TA24]
50 ± 6.1 µM | COc1cccc(CN(CCSc2ccccc2)Cc2ccc(S(=O)(=O)NC(=O)c3cccc4ccccc34)cc2)c1 [SZ17TA7]
19.3 ± 2.7 µM | Cn1cc(C(=O)C2CCCCC2)c2cc(C(=O)NS(=O)(=O)c3ccc(-c4ccc(C(C)(C)C)cc4)cc3)ccc21 [SZ11TA40]
8.6 ± 0.9 µM | O=C(NS(=O)(=O)c1ccc(CNc2cccc([N+](=O)[O-])c2)cc1)c1ccc(CN2C(=O)C(c3ccc(F)cc3F)=C(c3ccc(F)cc3F)C2=O)cc1 [SZ12TA42]
